From ChEMBL document CHEMBL1158753, “Ammodendrine and N-methylammodendrine enantiomers: isolation, optical rotation, and toxicity” (J Nat Prod, 2005)

Test: […] against iv dosed Swiss-Webster mouse
Format: organism-based
Settings: in vivo

SMILES	LD50
CC(=O)N1C=C([C@@H]2CCCCN2C)CCC1	63.4 mg/kg
CC(=O)N1C=C([C@H]2CCCCN2C)CCC1	56.3 mg/kg
CC(=O)N1C=C([C@@H]2CCCCN2)CCC1	115 mg/kg
CC(=O)N1C=C([C@H]2CCCCN2)CCC1	94.1 mg/kg
